Molecular target: T1, C-X-C chemokine receptor type 3 (Homo sapiens, UniProt P49682)
T1 sequence (P49682 whole entry): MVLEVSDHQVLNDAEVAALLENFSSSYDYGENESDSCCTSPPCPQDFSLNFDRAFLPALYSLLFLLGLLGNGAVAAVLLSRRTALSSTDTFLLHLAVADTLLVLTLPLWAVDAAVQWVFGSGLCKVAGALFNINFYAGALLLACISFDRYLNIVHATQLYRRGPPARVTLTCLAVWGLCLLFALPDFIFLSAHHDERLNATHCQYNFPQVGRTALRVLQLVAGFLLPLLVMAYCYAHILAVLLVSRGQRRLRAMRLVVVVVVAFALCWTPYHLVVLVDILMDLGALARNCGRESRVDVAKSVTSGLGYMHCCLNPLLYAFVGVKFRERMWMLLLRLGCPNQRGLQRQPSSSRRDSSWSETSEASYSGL
Test: Inhibitory concentration against […] expressed in human HEK293 cells using [125I]CXCL10 as radioligand
Format: cell-based

| Compound | IC50 [µM] |
| --- | --- |
| CCCCCCCCCC(=O)N(CCN(C)C)C(C)c1nc2ccccc2c(=O)n1-c1ccccc1 (centres undefined) | 15 |
| CCCCCCCCCC(=O)N(CCN(C)C)C(C)c1nc2ccccc2c(=O)n1-c1ccccc1C#N (centres undefined) | 10 |
| CCCCCCCCCC(=O)N(CCN(C)C)C(C)c1nc2ccccc2c(=O)n1-c1ccc(O)cc1 (centres undefined) | > 100 |
| CCCCCCCCCC(=O)N(CCN(C)C)C(C)c1nc2ccccc2c(=O)n1-c1ccc(C(F)(F)F)cc1 (centres undefined) | > 100 |

The next molecules have a lower IC50 than those just listed; values first:

| IC50 [µM] | Compound |
| --- | --- |
| 3.1 | CCCCCCCCCC(=O)N(CCN(C)C)C(C)c1nc2ccccc2c(=O)n1-c1ccc(C)cc1 (centres undefined) |
| 3.2 | CCCCCCCCCC(=O)N(CCN(C)C)C(C)c1nc2ccccc2c(=O)n1-c1ccc(F)cc1 (centres undefined) |
| 0.93 | CCCCCCCCCC(=O)N(CCN(C)C)C(C)c1nc2ccccc2c(=O)n1-c1ccc(C#N)cc1 (centres undefined) |
| 5.8 | CCCCCCCCCC(=O)N(CCN(C)C)C(C)c1nc2ccccc2c(=O)n1-c1cccc(C#N)c1 (centres undefined) |
| 3.3 | CCCCCCCCCC(=O)N(CCN(C)C)C(C)c1nc2ccccc2c(=O)n1-c1ccc(OC)cc1 (centres undefined) |

— ChEMBL document CHEMBL1139603, “Synthesis and structure-activity relationship of 3-phenyl-3H-quinazolin-4-one derivatives as CXCR3 chemokine receptor antagonists” (Bioorg Med Chem Lett, 2005)
